{"source": "patent US11572590B2", "about": "“Methods for evaluating tumor cell spheroids using 3D microfluidic cell culture device” (Dana-Farber Cancer Institute, Inc., priority 2017, dated 2023)", "test_in_all_cases": "SelectScreen Kinase Profiling, single point inhibition and IC50 for off-target kinases", "type_in_all_cases": "biochemical", "key": {"[1]": {"biological_target": "off-target kinases (Homo sapiens, UniProt Q16620)", "details": "NTRK2 (TRKB), ZLYTE, ATP Km app"}, "[2]": {"biological_target": "off-target kinases (Homo sapiens, UniProt P53779)", "sequence (P53779 whole entry)": "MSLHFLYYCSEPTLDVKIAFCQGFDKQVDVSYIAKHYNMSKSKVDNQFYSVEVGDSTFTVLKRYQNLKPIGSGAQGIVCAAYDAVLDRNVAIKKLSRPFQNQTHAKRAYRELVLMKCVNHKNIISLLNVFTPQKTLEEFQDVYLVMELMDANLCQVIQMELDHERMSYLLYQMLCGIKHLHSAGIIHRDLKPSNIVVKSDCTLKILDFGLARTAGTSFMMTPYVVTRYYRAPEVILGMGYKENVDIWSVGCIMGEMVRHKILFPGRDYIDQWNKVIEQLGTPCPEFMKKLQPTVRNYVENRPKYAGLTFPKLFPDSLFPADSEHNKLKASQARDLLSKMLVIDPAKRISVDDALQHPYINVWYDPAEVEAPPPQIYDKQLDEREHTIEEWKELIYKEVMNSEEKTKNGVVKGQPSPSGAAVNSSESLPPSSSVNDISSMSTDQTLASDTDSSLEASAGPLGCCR", "details": "MAPK10 (JNK3)"}, "[3]": {"biological_target": "off-target kinases (Homo sapiens, UniProt P11362)", "sequence (P11362 22-822)": "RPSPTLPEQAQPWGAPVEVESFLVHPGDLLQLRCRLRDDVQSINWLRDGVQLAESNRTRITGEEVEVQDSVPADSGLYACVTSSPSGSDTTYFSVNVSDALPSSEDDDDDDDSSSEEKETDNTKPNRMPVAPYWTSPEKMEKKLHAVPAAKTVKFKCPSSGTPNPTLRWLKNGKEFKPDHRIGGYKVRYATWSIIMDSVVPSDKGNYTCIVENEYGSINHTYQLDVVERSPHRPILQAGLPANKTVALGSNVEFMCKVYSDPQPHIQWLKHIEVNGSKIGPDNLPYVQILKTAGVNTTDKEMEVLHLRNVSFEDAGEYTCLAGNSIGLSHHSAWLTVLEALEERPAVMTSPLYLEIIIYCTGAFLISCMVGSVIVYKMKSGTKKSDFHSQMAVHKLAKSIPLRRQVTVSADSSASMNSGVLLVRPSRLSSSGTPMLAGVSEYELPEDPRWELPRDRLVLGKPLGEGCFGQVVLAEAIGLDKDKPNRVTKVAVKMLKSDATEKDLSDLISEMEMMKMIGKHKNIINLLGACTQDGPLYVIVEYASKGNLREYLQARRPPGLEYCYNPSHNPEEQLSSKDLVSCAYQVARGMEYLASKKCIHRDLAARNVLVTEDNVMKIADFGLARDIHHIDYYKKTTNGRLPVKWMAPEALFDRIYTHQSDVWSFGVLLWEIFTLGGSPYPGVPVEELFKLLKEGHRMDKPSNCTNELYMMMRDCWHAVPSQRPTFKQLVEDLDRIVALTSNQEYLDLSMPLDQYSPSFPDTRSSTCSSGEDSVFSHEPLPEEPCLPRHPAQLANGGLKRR", "details": "FGFR1, ZLYTE, ATP Km app"}, "[4]": {"biological_target": "off-target kinases (Homo sapiens, UniProt O75582)", "details": "RPS6KA5 (MSK1), ZLYTE, ATP Km app"}, "[5]": {"biological_target": "off-target kinases (Homo sapiens, UniProt P43250)", "sequence (P43250 whole entry)": "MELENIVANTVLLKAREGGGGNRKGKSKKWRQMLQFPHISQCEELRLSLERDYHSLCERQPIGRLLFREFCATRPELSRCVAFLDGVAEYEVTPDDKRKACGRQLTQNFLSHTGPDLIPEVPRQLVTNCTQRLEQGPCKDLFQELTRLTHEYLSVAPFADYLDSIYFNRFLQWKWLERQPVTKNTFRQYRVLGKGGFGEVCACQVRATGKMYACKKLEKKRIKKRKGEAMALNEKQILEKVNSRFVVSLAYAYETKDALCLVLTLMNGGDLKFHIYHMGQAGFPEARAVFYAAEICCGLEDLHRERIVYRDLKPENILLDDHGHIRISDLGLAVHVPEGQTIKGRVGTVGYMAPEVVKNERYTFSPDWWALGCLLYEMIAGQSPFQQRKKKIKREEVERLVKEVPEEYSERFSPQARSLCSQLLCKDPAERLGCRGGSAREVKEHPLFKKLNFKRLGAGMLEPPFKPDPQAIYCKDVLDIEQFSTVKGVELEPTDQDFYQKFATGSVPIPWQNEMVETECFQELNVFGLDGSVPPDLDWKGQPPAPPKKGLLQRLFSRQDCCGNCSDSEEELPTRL", "details": "GRK6, ZLYTE, ATP Km app"}, "[6]": {"biological_target": "off-target kinases (Homo sapiens, UniProt P10721, V654A)", "sequence (P10721 26-976 V654A)": "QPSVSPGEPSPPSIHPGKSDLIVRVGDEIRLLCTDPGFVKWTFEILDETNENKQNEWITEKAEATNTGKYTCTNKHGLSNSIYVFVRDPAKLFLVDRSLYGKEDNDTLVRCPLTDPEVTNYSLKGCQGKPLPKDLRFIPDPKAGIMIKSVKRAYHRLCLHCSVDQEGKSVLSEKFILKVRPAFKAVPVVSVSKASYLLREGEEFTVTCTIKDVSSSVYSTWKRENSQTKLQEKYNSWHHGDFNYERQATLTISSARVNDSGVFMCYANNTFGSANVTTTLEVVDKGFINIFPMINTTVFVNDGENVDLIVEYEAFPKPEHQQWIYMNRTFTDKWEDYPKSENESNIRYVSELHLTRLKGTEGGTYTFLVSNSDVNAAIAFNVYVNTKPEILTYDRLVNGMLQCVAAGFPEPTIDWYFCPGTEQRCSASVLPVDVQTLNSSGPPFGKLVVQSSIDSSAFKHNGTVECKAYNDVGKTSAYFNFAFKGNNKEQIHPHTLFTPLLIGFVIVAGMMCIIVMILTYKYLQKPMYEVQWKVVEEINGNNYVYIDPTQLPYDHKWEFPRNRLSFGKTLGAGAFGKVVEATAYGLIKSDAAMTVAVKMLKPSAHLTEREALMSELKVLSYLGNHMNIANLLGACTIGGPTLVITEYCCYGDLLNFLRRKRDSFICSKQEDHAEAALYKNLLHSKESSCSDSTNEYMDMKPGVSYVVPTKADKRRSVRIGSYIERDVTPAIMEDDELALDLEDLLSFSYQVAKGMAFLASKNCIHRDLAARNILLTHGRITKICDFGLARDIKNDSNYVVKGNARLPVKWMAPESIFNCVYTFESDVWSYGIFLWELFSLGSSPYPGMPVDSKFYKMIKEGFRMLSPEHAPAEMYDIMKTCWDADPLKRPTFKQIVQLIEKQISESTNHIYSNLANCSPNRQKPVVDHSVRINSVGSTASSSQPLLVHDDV", "details": "KIT V654A (mutant), LanthaScreen Binding"}, "[7]": {"biological_target": "off-target kinases (Homo sapiens, UniProt P41240)", "details": "CSK, ZLYTE, ATP Km app"}, "[8]": {"biological_target": "off-target kinases (Homo sapiens, UniProt P00519, T315I)", "details": "ABL1 T315I, mutant y, ZLYTE, ATP Km app"}, "[9]": {"biological_target": "off-target kinases (Homo sapiens, UniProt P07949, Y791F)", "sequence (P07949 29-1114 Y791F)": "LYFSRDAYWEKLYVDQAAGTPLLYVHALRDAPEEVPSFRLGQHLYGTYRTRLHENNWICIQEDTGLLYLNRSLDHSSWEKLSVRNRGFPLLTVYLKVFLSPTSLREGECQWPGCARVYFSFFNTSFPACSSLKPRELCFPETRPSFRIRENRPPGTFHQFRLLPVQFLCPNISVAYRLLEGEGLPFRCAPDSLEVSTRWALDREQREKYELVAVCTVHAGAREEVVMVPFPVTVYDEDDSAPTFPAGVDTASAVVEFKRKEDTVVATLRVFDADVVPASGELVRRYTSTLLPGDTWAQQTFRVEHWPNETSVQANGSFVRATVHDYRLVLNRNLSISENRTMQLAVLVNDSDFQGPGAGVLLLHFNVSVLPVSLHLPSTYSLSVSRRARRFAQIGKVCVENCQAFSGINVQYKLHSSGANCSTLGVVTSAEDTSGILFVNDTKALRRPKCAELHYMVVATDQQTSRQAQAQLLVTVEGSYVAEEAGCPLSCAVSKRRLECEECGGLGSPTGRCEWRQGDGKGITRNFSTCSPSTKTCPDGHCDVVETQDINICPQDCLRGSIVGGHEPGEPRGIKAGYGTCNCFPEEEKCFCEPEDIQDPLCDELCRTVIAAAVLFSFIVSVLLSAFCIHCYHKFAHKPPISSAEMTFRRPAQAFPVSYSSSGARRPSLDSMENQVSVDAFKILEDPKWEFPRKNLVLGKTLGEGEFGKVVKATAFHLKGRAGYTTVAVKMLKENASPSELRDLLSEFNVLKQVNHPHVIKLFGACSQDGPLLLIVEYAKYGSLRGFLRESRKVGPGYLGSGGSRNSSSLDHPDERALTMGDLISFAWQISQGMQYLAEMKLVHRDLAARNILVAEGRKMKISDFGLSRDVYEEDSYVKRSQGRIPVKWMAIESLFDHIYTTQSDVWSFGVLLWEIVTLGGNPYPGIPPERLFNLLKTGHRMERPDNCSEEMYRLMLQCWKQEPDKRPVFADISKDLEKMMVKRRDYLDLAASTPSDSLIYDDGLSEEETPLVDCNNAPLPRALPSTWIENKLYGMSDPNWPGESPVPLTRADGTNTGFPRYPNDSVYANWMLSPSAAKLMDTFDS", "details": "RET Y791F, ATP Km app, ZLYTE"}, "[10]": {"biological_target": "off-target kinases (Homo sapiens, UniProt P54756)", "details": "EPHA5, ZLYTE, ATP Km app"}, "[11]": {"biological_target": "off-target kinases (Homo sapiens, UniProt Q9H2X6)", "sequence (Q9H2X6 whole entry)": "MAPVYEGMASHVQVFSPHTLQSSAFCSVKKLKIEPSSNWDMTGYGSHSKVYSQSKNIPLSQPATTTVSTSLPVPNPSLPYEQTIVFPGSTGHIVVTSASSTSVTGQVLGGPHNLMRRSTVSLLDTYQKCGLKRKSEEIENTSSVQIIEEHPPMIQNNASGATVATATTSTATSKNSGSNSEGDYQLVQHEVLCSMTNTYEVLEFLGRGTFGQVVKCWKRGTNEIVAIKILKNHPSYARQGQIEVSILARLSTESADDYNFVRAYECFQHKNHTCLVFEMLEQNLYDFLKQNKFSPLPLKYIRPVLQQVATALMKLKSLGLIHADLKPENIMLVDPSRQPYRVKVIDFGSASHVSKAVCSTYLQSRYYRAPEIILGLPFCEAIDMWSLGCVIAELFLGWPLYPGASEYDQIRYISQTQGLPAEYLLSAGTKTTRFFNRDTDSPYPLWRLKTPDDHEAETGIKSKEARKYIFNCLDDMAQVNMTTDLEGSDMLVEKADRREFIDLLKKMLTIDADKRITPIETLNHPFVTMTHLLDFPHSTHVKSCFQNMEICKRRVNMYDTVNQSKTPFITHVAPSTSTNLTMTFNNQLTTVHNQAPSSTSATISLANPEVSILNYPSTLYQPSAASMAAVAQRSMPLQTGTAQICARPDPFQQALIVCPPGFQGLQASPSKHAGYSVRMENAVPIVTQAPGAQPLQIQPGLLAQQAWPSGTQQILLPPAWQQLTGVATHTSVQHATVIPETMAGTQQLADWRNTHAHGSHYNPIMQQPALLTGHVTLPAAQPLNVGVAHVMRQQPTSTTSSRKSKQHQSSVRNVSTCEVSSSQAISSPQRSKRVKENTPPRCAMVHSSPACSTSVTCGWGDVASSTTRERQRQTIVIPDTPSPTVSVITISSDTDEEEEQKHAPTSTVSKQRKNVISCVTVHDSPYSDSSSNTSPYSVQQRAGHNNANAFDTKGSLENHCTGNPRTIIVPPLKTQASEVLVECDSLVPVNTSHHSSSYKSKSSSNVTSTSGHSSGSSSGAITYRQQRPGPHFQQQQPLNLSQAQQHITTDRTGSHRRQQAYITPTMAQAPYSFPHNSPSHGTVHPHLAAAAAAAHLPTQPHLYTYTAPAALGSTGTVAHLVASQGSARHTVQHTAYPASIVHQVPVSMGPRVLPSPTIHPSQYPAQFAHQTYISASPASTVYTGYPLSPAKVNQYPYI", "details": "HIPK2, ZLYTE, ATP Km app"}}, "note": "Like-named read-outs stand apart in the source and are kept apart here.", "data": [{"smiles": "N#Cc1cc(-c2ncnc(Nc3ccc(N4CCN(C5COC5)CC4)cc3)n2)ccc1OC1CCOCC1", "note": "[Compound 1, 5-(4-((4-(4-(oxetan-3-yl)piperazin-1-yl)phenyl)amino)-1,3,5-triazin-2-yl)-2-((tetrahydro-2H-pyran-4-yl)oxy)benzonitrile]", "values": [{"measurement": "inhibition", "setting": "[1]; read-out: % Inhibition 1", "result": 5, "unit": "%"}, {"measurement": "inhibition", "setting": "[1]; read-out: % Inhibition 2", "result": 7, "unit": "%"}, {"measurement": "inhibition", "setting": "[1]; read-out: % Inhibition Avg", "result": 6, "unit": "%"}, {"measurement": "inhibition", "setting": "[2]; LanthaScreen Binding, read-out: % Inhibition 1", "result": 48, "unit": "%"}, {"measurement": "inhibition", "setting": "[2]; LanthaScreen Binding, read-out: % Inhibition 2", "result": 49, "unit": "%"}, {"measurement": "inhibition", "setting": "[2]; LanthaScreen Binding, read-out: % Inhibition Avg", "result": 49, "unit": "%"}, {"measurement": "inhibition", "setting": "[2]; ZLYTE, ATP 100, read-out: % Inhibition 1", "result": 20, "unit": "%"}, {"measurement": "inhibition", "setting": "[2]; ZLYTE, ATP 100, read-out: % Inhibition 2", "result": 21, "unit": "%"}, {"measurement": "inhibition", "setting": "[2]; ZLYTE, ATP 100, read-out: % Inhibition Avg", "result": 20, "unit": "%"}, {"measurement": "inhibition", "setting": "[3]; read-out: % Inhibition 1", "result": -5, "unit": "%"}, {"measurement": "inhibition", "setting": "[3]; read-out: % Inhibition 2", "result": -2, "unit": "%"}, {"measurement": "inhibition", "setting": "[3]; read-out: % Inhibition Avg", "result": -3, "unit": "%"}, {"measurement": "inhibition", "setting": "[4]; read-out: % Inhibition 1", "result": 6, "unit": "%"}, {"measurement": "inhibition", "setting": "[4]; read-out: % Inhibition 2", "result": 3, "unit": "%"}, {"measurement": "inhibition", "setting": "[4]; read-out: % Inhibition Avg", "result": 4, "unit": "%"}, {"measurement": "inhibition", "setting": "[5]; read-out: % Inhibition 1", "result": 2, "unit": "%"}, {"measurement": "inhibition", "setting": "[5]; read-out: % Inhibition 2", "result": 2, "unit": "%"}, {"measurement": "inhibition", "setting": "[5]; read-out: % Inhibition Avg", "result": 2, "unit": "%"}, {"measurement": "inhibition", "setting": "[6]; read-out: % Inhibition 1", "result": 7, "unit": "%"}, {"measurement": "inhibition", "setting": "[6]; read-out: % Inhibition 2", "result": 10, "unit": "%"}, {"measurement": "inhibition", "setting": "[6]; read-out: % Inhibition Avg", "result": 9, "unit": "%"}, {"measurement": "inhibition", "setting": "[7]; read-out: % Inhibition 1", "result": 13, "unit": "%"}, {"measurement": "inhibition", "setting": "[7]; read-out: % Inhibition 2", "result": 10, "unit": "%"}, {"measurement": "inhibition", "setting": "[7]; read-out: % Inhibition Avg", "result": 12, "unit": "%"}, {"measurement": "inhibition", "setting": "[8]; read-out: % Inhibition 1", "result": 30, "unit": "%"}, {"measurement": "inhibition", "setting": "[8]; read-out: % Inhibition 2", "result": 29, "unit": "%"}, {"measurement": "inhibition", "setting": "[8]; read-out: % Inhibition Avg", "result": 29, "unit": "%"}, {"measurement": "inhibition", "setting": "[9]; read-out: % Inhibition 1", "result": 57, "unit": "%"}, {"measurement": "inhibition", "setting": "[9]; read-out: % Inhibition 2", "result": 43, "unit": "%"}, {"measurement": "inhibition", "setting": "[9]; read-out: % Inhibition Avg", "result": 50, "unit": "%"}, {"measurement": "inhibition", "setting": "[10]; read-out: % Inhibition 1", "result": 3, "unit": "%"}, {"measurement": "inhibition", "setting": "[10]; read-out: % Inhibition 2", "result": 4, "unit": "%"}, {"measurement": "inhibition", "setting": "[10]; read-out: % Inhibition Avg", "result": 3, "unit": "%"}, {"measurement": "inhibition", "setting": "[11]; read-out: % Inhibition 1", "result": 21, "unit": "%"}, {"measurement": "inhibition", "setting": "[11]; read-out: % Inhibition 2", "result": 19, "unit": "%"}, {"measurement": "inhibition", "setting": "[11]; read-out: % Inhibition Avg", "result": 20, "unit": "%"}]}]}
